Reference: BindingDB's records for PubMed 10336510 (Virginia Commonwealth University, 1999)

Columns and labels:
[1] = biological target: Sodium-dependent serotonin transporter (Rattus norvegicus, UniProt P31652)
[2] = biological target: Sodium-dependent dopamine transporter (Rattus norvegicus, UniProt P23977)
[3] = biological target: Norepinephrine transporter (Rattus norvegicus, UniProt Q9JIA2)

Sodium-dependent serotonin transporter, sequence (P31652 whole entry): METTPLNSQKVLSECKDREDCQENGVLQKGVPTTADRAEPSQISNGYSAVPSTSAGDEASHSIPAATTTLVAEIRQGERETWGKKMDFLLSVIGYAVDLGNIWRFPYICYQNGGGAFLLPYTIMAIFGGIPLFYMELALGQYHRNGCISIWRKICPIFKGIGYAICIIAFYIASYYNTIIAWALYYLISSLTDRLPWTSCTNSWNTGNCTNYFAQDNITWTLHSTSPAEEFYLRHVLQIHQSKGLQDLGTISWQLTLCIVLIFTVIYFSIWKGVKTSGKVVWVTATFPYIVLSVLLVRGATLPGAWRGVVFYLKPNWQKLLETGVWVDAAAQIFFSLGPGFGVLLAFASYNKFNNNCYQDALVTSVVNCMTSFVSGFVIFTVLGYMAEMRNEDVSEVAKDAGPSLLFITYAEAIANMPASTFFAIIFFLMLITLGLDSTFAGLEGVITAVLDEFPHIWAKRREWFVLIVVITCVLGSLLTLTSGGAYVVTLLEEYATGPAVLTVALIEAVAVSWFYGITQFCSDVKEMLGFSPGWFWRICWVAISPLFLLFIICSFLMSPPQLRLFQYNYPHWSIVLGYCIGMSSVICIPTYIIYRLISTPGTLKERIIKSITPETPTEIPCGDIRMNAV
Sodium-dependent dopamine transporter, sequence (P23977 whole entry): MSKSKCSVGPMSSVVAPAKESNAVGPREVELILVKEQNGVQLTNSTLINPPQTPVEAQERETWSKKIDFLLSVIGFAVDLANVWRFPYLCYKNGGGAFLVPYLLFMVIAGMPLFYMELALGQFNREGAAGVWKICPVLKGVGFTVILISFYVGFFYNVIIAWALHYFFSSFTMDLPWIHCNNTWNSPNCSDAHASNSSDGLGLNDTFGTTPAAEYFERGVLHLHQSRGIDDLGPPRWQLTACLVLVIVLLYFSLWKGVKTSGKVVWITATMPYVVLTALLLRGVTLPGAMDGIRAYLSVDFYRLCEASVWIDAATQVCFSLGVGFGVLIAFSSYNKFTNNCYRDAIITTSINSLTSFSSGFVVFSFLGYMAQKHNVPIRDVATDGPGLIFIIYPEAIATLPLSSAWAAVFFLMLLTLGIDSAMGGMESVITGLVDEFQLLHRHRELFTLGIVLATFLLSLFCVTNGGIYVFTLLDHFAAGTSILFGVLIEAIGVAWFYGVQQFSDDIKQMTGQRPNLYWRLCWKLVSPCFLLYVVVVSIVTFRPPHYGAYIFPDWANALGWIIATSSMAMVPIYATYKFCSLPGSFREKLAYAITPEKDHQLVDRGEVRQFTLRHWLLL

Structure (SMILES)	Ki [1]	Ki [2]	Ki [3]
COC(=O)[C@H]1[C@@H](c2ccc(Cl)cc2)C[C@@H]2CC[C@H]1N2C [RTI-31]	0.0445 µM	0.00112 µM	
COC(=O)C1C2CC[C@H](C[C@@H]1c1ccc(N)cc1)N2C (stereo partly drawn) [(3S,8R)-3-(4-Amino-phenyl)-8-methyl-8-aza-bicyclo[3.2.1]octane-2-carboxylic acid methyl ester]	5.11 µM	0.0098 µM	0.151 µM
CN1C2CC[C@@H]1C[C@H](c1ccc(Cl)cc1)C2C(=O)N1CCCC1 (stereo partly specified) [RTI-147]	> 10 µM	0.00138 µM	3.95 µM
COC(=O)[C@H]1[C@@H](c2ccccc2)C[C@@H]2CC[C@H]1N2C [methyl (1R,2S,3S,5S)-8-methyl-3-phenyl-8-azabicyclo[3.2.1]octane-2-carboxylate]		0.023 µM	0.92 µM
COC(=O)C1C2CC[C@H](C[C@@H]1c1ccc(C)cc1)N2C (stereo partly specified) [RTI-32]		0.0017 µM	0.06 µM
COC(=O)[C@@H]1C2CCC(C[C@@H]1c1ccc(Cl)c(Cl)c1)N2C (stereo partly drawn) [(2S,3S)-methyl 3-(3,4-dichlorophenyl)-8-methyl-8-aza-bicyclo[3.2.1]octane-2-carboxylate]	0.0031 µM	0.00079 µM	0.0179 µM
COC(=O)[C@H]1[C@@H](c2ccc(Br)cc2)C[C@@H]2CC[C@H]1N2C [RTI-51]	0.0106 µM	0.00169 µM	
CC(C)OC(=O)[C@@H]1C2CC[C@H](C[C@@H]1c1ccc(I)cc1)N2C	0.0668 µM	0.0004 µM	0.285 µM
CC(C)OC(=O)[C@@H]1C2CC[C@H](C[C@@H]1c1ccc(Cl)cc1)N2C	1.4 µM	0.0014 µM	0.778 µM
CN1[C@H]2CC[C@@H]1[C@@H](C(=O)Oc1ccccc1)[C@@H](c1ccc(Cl)cc1)C2 [RTI-113]	2.34 µM	0.00198 µM	2.93 µM
CN1[C@H]2CC[C@@H]1[C@@H](C(=O)N1CCCC1)[C@@H](c1ccc(I)cc1)C2 [RTI-229]	1.73 µM	0.00037 µM	0.99 µM
CN1[C@H]2CC[C@@H]1[C@@H](C(=O)O)[C@@H](c1ccc(Cl)cc1)C2 [RIT-70]	> 10 µM	2.07 µM	> 10 µM
Cc1ccc([C@H]2C[C@@H]3CC[C@H]([C@H]2C(=O)Oc2ccccc2)N3C)cc1 [RTI-120]	> 10 µM	0.00326 µM	5.83 µM
COC(=O)[C@H]1[C@@H](c2ccc(Cl)cc2)C[C@@H]2CC[C@H]1N2 [RTI-110]	0.0041 µM	0.00062 µM	0.00545 µM
COC(=O)[C@H]1[C@@H](c2ccc(Cl)c(C)c2)C[C@@H]2CC[C@H]1N2C	0.0105 µM	0.0008 µM	0.0362 µM
